Turning to `Cc1nn(C)c2c1NC(=O)CS2`, the melting point – broadly, the temperature of the solid-liquid transition – lay in the range of 197 to 199 °C.
Molecule `Cc1nn(-c2cncc3nnnn23)c(C)c1CC(=O)O` showed a melting point of 173 to 175 °C.
For `N#Cc1ccc(NC(=O)CC2CCCC2)cc1`, the melting point lay within 145 to 147 °C.
The figure for `COc1ccc(-c2nnc(S)n2C(C)C)cc1` is 218 to 220 °C; for `O=C(O)c1cc(OCC(F)(F)F)ccc1[N+](=O)[O-]` it is 156 to 158 °C; for `O=C(O)CNC(=O)c1cc(-c2ccccc2)on1` it is 208 to 210 °C.
For `Cc1c(Cl)cc(C(=O)O)cc1S(=O)(=O)Cl`, the melting point lay within 167 to 169 °C.
`CN(C)C(=O)CCn1cc(Br)cn1` displayed a melting point of 64 to 66 °C.
Regarding `CN(C)S(=O)(=O)c1ccc(F)c(N)c1`, the melting point is 104 to 106 °C.
In turn, `CCOC(=O)c1cnc2c(cnn2C)c1Cl` showed a melting point of 83 to 85 °C.
On to `Nc1cccc(OCC(=O)Nc2ccccc2)c1`, for which the melting point is 120 to 122 °C.
As for `O=C(O)c1ccc(C=C2NC(=S)N(c3ccc(F)cc3)C2=O)cc1`, the melting point lay within 349 to 351 °C.
The molecule `Cc1nn(C)c(C)c1CC(=O)N1CCC(C(=O)O)CC1` returned a melting point of 167 to 169 °C.
`CN(CC(=O)O)S(=O)(=O)c1ccc2ccccc2c1` returned a melting point of 172 to 174 °C.
For the molecule `CC1CNc2ccccc2NC1`, the melting point is 82 to 84 °C.
For the molecule `N#CCc1nccn1CC(F)(F)F`, the melting point was in the range of 106 to 108 °C.
The figure for `CSc1cc(C(=O)O)c(Cl)cc1Cl` is 192 to 194 °C.
In the case of `COc1ccc(-c2nnc(S)[nH]2)c(OC)c1`, the melting point was 250 to 252 °C.
For the molecule `Cc1sc2ncnc(NCC(=O)O)c2c1C`, the melting point was in the range of 244 to 246 °C.
Molecule `O=C(CBr)c1sccc1Br` displayed a melting point of 60 to 62 °C.
`Cc1cc(C(=O)O)c2c(CC(C)(C)C)noc2n1`: the melting point lay in the range of 224 to 226 °C.
Take `O=S(=O)(Cl)c1csc(-c2cccc(Br)c2)n1`: the melting point lay in the range of 94 to 96 °C.
The figure for `Nc1ccc(S(N)(=O)=O)cc1Br` is 153 to 155 °C; for `O=[N+]([O-])c1ccc(F)cc1S(=O)(=O)Cl` it is 57 to 59 °C.
`OC1CCCCC1c1ccc(Cl)cc1` (stereo not drawn) came in with a melting point of 83 to 85 °C.
The molecule `CC(C)(C)OC(=O)NNC(=O)OC(C)(C)C` had a melting point of 123 to 126 °C.
In the case of `Cc1ccc(S(=O)(=O)NC(C)(C)C)cc1C(=O)O`, the melting point lay within 180 to 182 °C.
The figure for `CN1CCCN(c2nc3ccccc3cc2CO)CC1` is 95 to 97 °C; for `O=Cc1cn(-c2ccccc2)nc1-c1ccc(Cl)cc1` it is 125 to 127 °C.
The figure for `CCC(CC(=O)O)c1ccc(OC)cc1` (stereo not drawn) is 83 to 85 °C; for `CC(C)(C)OC(=O)NCC(N)C1CCCCC1` (stereo not drawn) it is 47 to 49 °C.
For `O=C1NCCS1`, the melting point lay in the range of 51 to 53 °C.
The figure for `Cc1ccc(-n2c(S)nc3ccccc32)c(C)c1` is 192 to 194 °C.
In turn, `ClCc1cc(Cl)cc2c1OCC2` registered a melting point of 46 to 48 °C.
Take `CC(C)Cc1ccc(C=CC(=O)O)cc1`: the melting point lay within 159 to 161 °C.
In turn, `CCc1ccc(CC)c(-c2csc(N)n2)c1` yielded a melting point of 66 to 68 °C.
Turning to `COc1ccccc1C1(C)CC1C(=O)O` (stereo not drawn), the melting point fell in the range of 166 to 168 °C.
The figure for `CC(Nc1ccc(Cl)nn1)c1ccccc1` (stereo not drawn) is 159 to 161 °C; for `Nc1nc(-c2cccc(Oc3ccccc3)c2)ns1` it is 138 to 140 °C.
With `O=C(c1cn[nH]c1)N1CCN(c2ccccn2)CC1`, the melting point was 194 to 196 °C.
The figure for `NS(=O)(=O)c1ccc(NC(=O)CCl)cc1` is 156 to 158 °C; for `Cc1cc(NC(=O)Nc2cc(C)nn2C(C)(C)C)n(C(C)(C)C)n1` it is 235 to 237 °C.
`O=C(O)C1(Cc2ccccc2)CC2CCC1C2` (stereo not drawn) registered a melting point of 89 to 91 °C.
Turning to `CC1=CC(=O)N(c2ccc(C(=O)O)cc2)C1=O`, the melting point is 201 to 203 °C.
Take `Cc1cc(C(=O)CCl)c(C)n1-c1ccc(F)c(Cl)c1`: the melting point fell in the range of 115 to 117 °C.
For the molecule `Cc1c(C(=O)O)nnn1-c1ccccc1Cl`, the melting point lay within 165 to 167 °C.
In the case of `Cc1ccc(C)c(S(=O)(=O)Nc2cccc(C(=O)O)c2)c1`, the melting point lay within 217 to 219 °C.
Molecule `O=C(O)c1ccc(-c2cc(F)c(F)c(F)c2)cc1` returned a melting point of 264 to 266 °C.
Regarding `Nc1nc2cc(Cl)ccc2s1`, the melting point is 197 to 199 °C.
The molecule `Nc1ncn(Cc2ccc(Br)cc2)n1` displayed a melting point of 169 to 171 °C.
In the case of `O=C(O)c1ccc(F)cc1-c1ccc(Cl)c(Cl)c1`, the melting point was in the range of 179 to 181 °C.
In the case of `OC(CNCc1ccccc1)C(F)(F)F` (stereo not drawn), the melting point lay within 58 to 60 °C.
For `CCOC(=O)c1c(NC(=O)CCl)sc(-c2ccccc2)c1C`, the melting point was 106 to 108 °C.
On to `Cc1nn(C(C)C)c(C)c1N`, for which the melting point is 58 to 60 °C.
With `C=CCN(c1ccccc1)S(=O)(=O)c1cccc(C(=O)O)c1`, the melting point was in the range of 103 to 105 °C.
`O=C(O)CSc1ccc(Cl)cc1[N+](=O)[O-]` returned a melting point of 159 to 161 °C.
`Cc1cc2ncc(S(C)(=O)=O)c(N)n2n1`: the melting point lay in the range of 208 to 210 °C.
The figure for `O=C(O)CC1SC(=Nc2ccccc2)NC1=O` (stereo not drawn) is 202 to 204 °C; for `Cn1cc(C#N)c(=O)[nH]c1=O` it is 239 to 241 °C; for `CCc1nnc(S)n1N` it is 143 to 145 °C.
The figure for `C=CC(=O)NCc1ccc(F)cc1` is 118 to 120 °C.
The figure for `CC(C)c1ccccc1NC(N)=S` is 137 to 139 °C.
`Cc1c(NC(=O)CCCl)c(=O)n(-c2ccccc2)n1C` displayed a melting point of 207 to 209 °C.
The figure for `CC(C)NC(=O)OCC(F)(F)F` is 48 to 50 °C; for `Cc1c(N)cccc1-c1nc2cc(F)ccc2n1C1CC1` it is 131 to 133 °C; for `Cc1c(N)cnn1CCC(C)C` it is 46 to 48 °C.
Turning to `CCOc1ccc(S(N)(=O)=O)cc1OCC`, the melting point is 152 to 154 °C.
In the case of `COc1nc(C)ccc1C(=O)O`, the melting point fell in the range of 107 to 109 °C.
Consider `C1CC2OC1C1CNCC21` (stereo not drawn), for which the melting point is 53 to 55 °C.
`Cc1cc(C(=O)O)ccc1N1C(=O)C=CC1=O`: the melting point was 203 to 205 °C.
Molecule `O=C(Nc1ccc(O)cc1)C1CC1` displayed a melting point of 212 to 214 °C.
`O=[N+]([O-])c1cc2nc(Cl)ccc2cc1F` came in with a melting point of 130 to 132 °C.
Turning to `CN1CCN(c2ncc(Br)cc2CO)CC1`, the melting point lay in the range of 140 to 142 °C.
With `CC(C)(C)OC(=O)NC(C(N)=NO)c1ccccc1` (stereo not drawn), the melting point was 177 to 179 °C.
Turning to `NS(=O)(=O)c1ccc(Cl)nc1`, the melting point lay within 154 to 156 °C.
`NC(C(=O)O)c1ccc(Cl)cc1` (stereo not drawn) gave a melting point of 219 to 221 °C.
Take `Nc1ccc(S(=O)(=O)N2CCCCC2)cn1`: the melting point lay in the range of 171 to 173 °C.
Molecule `COc1ccc(C(C)=O)cc1Cn1cccn1` showed a melting point of 80 to 82 °C.
For the molecule `COC(=O)c1ccc(N)cc1C`, the melting point lay within 69 to 71 °C.
Turning to `CC1CCC(Cn2c(N)cc(=O)[nH]c2=O)CC1` (stereo not drawn), the melting point lay in the range of 239 to 241 °C.
The molecule `Cc1nn(-c2ccc(Cl)cc2)c(C)c1C(=O)O` displayed a melting point of 219 to 221 °C.
In the case of `O=C(O)c1csc(S(=O)(=O)N2CCc3ccccc3C2)c1`, the melting point was 232 to 234 °C.
The figure for `O=C(Cl)c1cc([N+](=O)[O-])ccc1Br` is 62 to 64 °C; for `CC(C)(C)C1CCC(c2cc(N)[nH]n2)CC1` (stereo not drawn) it is 132 to 134 °C; for `CC1CN(C(=O)CCl)CC(C)O1` (stereo not drawn) it is 61 to 63 °C.
The figure for `C/C(=N\O)c1ccc(-c2cccc(Br)c2)s1` is 168 to 170 °C; for `COc1ccccc1NS(=O)(=O)c1ccc(N2CCOCC2)c(N)c1` it is 150 to 152 °C; for `ClCc1nnc(-c2ccc(Br)s2)o1` it is 109 to 111 °C.
The figure for `COc1ccc(O)c(C(C)N)c1` (stereo not drawn) is 123 to 125 °C.
`COc1cc(CC(=O)O)ccc1C` gave a melting point of 74 to 76 °C.
Molecule `O=C(CSc1ccccc1C(=O)O)NCC1CCCCC1` gave a melting point of 118 to 120 °C.
Regarding `CC(=O)Nc1ccccc1CC(=O)O`, the melting point fell in the range of 144 to 146 °C.
The molecule `CC1=C(C(=O)O)CCC1` returned a melting point of 130 to 132 °C.
The figure for `COc1ccc(-c2nc(C(=O)O)cs2)cc1OC` is 204 to 206 °C; for `CC(C)(C)c1ccc(=O)[nH]n1` it is 163 to 165 °C.
The molecule `CCOC(=O)c1oc2ccccc2c1CBr` yielded a melting point of 77 to 79 °C.
For the molecule `Nc1nnc(-c2cccc(OC(F)F)c2)o1`, the melting point lay in the range of 179 to 181 °C.
Turning to `CC(C)N1C(=O)NC2(CCNC2)C1=O` (stereo not drawn), the melting point fell in the range of 98 to 100 °C.
`CC(=O)N(c1ccc(Cl)cc1)c1nc(C=O)cs1` came in with a melting point of 210 to 212 °C.
In the case of `CC(C)C(Oc1ccc(F)cc1F)C(=O)O` (stereo not drawn), the melting point lay within 67 to 69 °C.
Turning to `O=C(Nc1ccccc1)C(Cl)c1ccccc1` (stereo not drawn), the melting point is 150 to 152 °C.
In the case of `N#Cc1ccc(I)c(C(F)(F)F)c1`, the melting point lay within 100 to 102 °C.
The figure for `CN(C)Cc1ccc(C(=N)N)cc1` is 124 to 126 °C; for `NCC(O)COc1ccc(F)cc1` (stereo not drawn) it is 71 to 73 °C.
For the molecule `c1ccc(CC2CCN(Cc3ccccc3)CC2)cc1`, the melting point is 65 to 67 °C.
Take `CCC(CC)(Cc1nc2ccccc2s1)C(=O)O`: the melting point was in the range of 143 to 145 °C.
As to `O=C(O)c1csc(-c2ccco2)n1`, the melting point is 181 to 183 °C.
As for `Cc1cc(C)c2c(C(=O)O)cc(C3CC3)nc2c1`, the melting point was 217 to 219 °C.
The molecule `C=CC(=O)Nc1ccc(OC)cc1[N+](=O)[O-]` displayed a melting point of 124 to 126 °C.
Molecule `O=C(c1ccc(O)cc1)N1CCc2sccc2C1` yielded a melting point of 200 to 202 °C.
`O=C(O)CCCNS(=O)(=O)c1cccc(C(F)(F)F)c1` yielded a melting point of 152 to 155 °C.
As for `CC(C)n1ncc2cc(N)cnc21`, the melting point fell in the range of 85 to 87 °C.
In turn, `Cc1nc(CSCC(=O)O)cs1` had a melting point of 155 to 157 °C.
In turn, `O=C(O)c1ccc2c(c1)CC(c1ccccc1)OC2=O` (stereo not drawn) showed a melting point of 310 to 312 °C.
In turn, `Nc1c(F)cc(Br)cc1C(=O)O` showed a melting point of 214 to 216 °C.
Molecule `COc1ccc2cc(CCl)c(Cl)nc2c1` came in with a melting point of 133 to 135 °C.
The molecule `O=C(O)c1cnc(-c2ncccn2)s1` gave a melting point of 217 to 219 °C.
The figure for `Cc1ccc2[nH]c(C(=O)O)c(Cl)c2c1` is 191 to 193 °C.

Values taken from a melting point compilation (Tetko et al.).
